The values that follow come from patent US10040798B2, “Pyrrolopyridazine inhibitors of IRAK4 activity” (MERCK SHARP & DOHME CORP., priority 2015, dated 2018).

The target of this test is IRAK4 (Homo sapiens (Human), UniProt Q9NWZ3). As to the kind of experiment: IRAK4 Kinase Assay (IMAP fluorescence polarization). It counts as biochemical. Particulars: 0.5 nM GST tagged IRAK4, 100 μM ATP, 30 minutes at 25° C., IMAP FP. A digest of the protocol:
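GST-tagged IRAK4 (0.5 nM) phosphorylated 100 nM fluorescent peptide RP7030 with 100 μM ATP in 10 mM Tris-HCl pH 7.2, MgCl2, DTT and Tween 20 for 30 min at 25 °C. Phosphorylation was read as the increase in fluorescence polarization after binding to IMAP nanoparticles.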
For orientation: Fluorescence polarisation rises when a labelled molecule tumbles more slowly, as on binding a larger partner.

A word on the pIC50: it is the negative decadic logarithm of the IC50, by convention in mol/L. A lower pIC50 goes with a large IC50.

SMILES strings stand for the structures. pIC50: −log10 of the molar value. Where a name gives a salt, the structure may show the parent alone.

IRAK4, sequence (Q9NWZ3 whole entry): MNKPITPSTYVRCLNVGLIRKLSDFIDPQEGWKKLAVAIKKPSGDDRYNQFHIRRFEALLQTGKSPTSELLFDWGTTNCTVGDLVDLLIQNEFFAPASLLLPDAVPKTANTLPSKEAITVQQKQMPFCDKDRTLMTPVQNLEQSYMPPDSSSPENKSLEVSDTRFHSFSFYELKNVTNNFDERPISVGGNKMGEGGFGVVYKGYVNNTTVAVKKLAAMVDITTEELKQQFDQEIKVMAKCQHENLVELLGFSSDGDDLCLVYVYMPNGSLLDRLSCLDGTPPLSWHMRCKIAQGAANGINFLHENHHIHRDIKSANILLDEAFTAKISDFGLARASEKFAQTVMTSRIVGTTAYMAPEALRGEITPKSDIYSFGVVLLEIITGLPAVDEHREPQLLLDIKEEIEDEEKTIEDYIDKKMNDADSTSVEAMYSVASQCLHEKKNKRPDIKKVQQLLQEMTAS

On to `Cn1cc(NC(=O)c2ccc3ccc(N4C[C@H]5CC[C@@H]4CN5)nn23)c(Br)n1` (single isomer, unassigned) [Example 36, N-(3-bromo-1-methyl-1H-pyrazol-4-yl)-2-[(1S,4S)- or (1R,4R)-2,5-diazabicyclo[2.2.2]oct-2-yl]pyrrolo[1,2-b]pyridazine-7-carboxamide trifluoroacetate], for which the pIC50 is 7.66.

Consider `N#Cc1ccccc1NC(=O)c1ccc2ccc(N3CCCNCC3)nn12` [Example 100, N-(2-Cyanophenyl)-2-(1,4-diazepan-1-yl)pyrrolo[1,2-b]pyridazine-7-carboxamide], for which the pIC50 is 6.06.

Molecule `O=C(Nc1cscc1Cl)c1ccc2ccc(N3C[C@@H]4CC[C@H]3CN4)nn12` (single isomer, unassigned) [Example 83, N-(4-chlorothiophen-3-yl)-2-[(1S,4S)- or (1R,4R)-2,5-diazabicyclo[2.2.2]oct-2-yl]pyrrolo[1,2-b]pyridazine-7-carboxamide trifluoroacetate] had a pIC50 of 6.73.

`Cn1cc(NC(=O)c2ccc3ccc(N4CCNCC5(CC5)C4)nn23)c(C(F)F)n1` [Example 18, 2-(5,8-diazaspiro[2.6]non-5-yl)-N-[3-(difluoromethyl)-1-methyl-1H-pyrazol-4-yl]pyrrolo[1,2-b]pyridazine-7-carboxamide trifluoroacetate] had a pIC50 of 8.70.

The molecule `Cn1cc(NC(=O)c2ccc3ccc(N4CCCNCC4)nn23)c(Cl)n1` [Example 23, N-(3-chloro-1-methyl-1H-pyrazol-4-yl)-2-(1,4-diazepan-1-yl)pyrrolo[1,2-b]pyridazine-7-carboxamide trifluoroacetate] gave a pIC50 of 7.70. Compared with the last molecule, the pIC50 is 1.00 log units lower.

As for `N[C@H]1CCCC[C@H]1Nc1ccc2ccc(C(=O)Nc3ccsc3C(F)(F)F)n2n1` [Example 116, 2-{[1R,2S)-2-aminocyclohexyl] amino}-N-[2-(trifluoromethyl) thiophen-3-yl] pyrrolo[1,2-b]pyridazine-7-carboxamide trifluoroacetate], the pIC50 is 6.66.

Molecule `Cn1cc(NC(=O)c2ccc3ccc(N4CC5CCC4CN5)nn23)c(Br)n1` (centres unmarked) [Example 27, N-(3-bromo-1-methyl-1H-pyrazol-4-yl)-2-(2,5-diazabicyclo[2.2.2]oct-2-yl)pyrrolo[1,2-b]pyridazine-7-carboxamide trifluoroacetate] gave a pIC50 of 7.62.

For `N#Cc1ccccc1NC(=O)c1ccc2ccc(N3CCNCC3)nn12` [Example 101, N-(2-cyanophenyl)-2-piperazin-1-ylpyrrolo[1,2-b]pyridazine-7-carboxamide trifluoroacetate], the pIC50 was 6.24. Compared with the last molecule, the pIC50 is 1.38 log units lower.

In turn, `Cn1ncc(NC(=O)c2ccc3ccc(N[C@@H]4CCCC[C@@H]4N)nn23)c1C(F)(F)F` [Example 45, 2-{[(1R,2S)-2-aminocyclohexyl]amino}-N-[1-methyl-5-(trifluoromethyl)-1H-pyrazol-4-yl]pyrrolo[1,2-b]pyridazine-7-carboxamide trifluoroacetate] had a pIC50 of 6.87.

As for `Cn1cc(NC(=O)c2ccc3ccc(N[C@@H]4CCCC(F)(F)[C@@H]4N)nn23)c(C(F)F)n1` [Example 28, 2-{[(1R,2R)-2-amino-3,3-difluorocyclohexyl]amino}-N-[3-(difluoromethyl)-1-methyl-1H-pyrazol-4-yl]pyrrolo[1,2-b]pyridazine-7-carboxamide trifluoroacetate], the pIC50 is 7.47.

Take `N[C@@H]1[C@H](Nc2ccc3ccc(C(=O)Nc4ccsc4Cl)n3n2)CCCC1(F)F` [Example 90, 2-{[(1R,2R)-2-amino-3,3-difluoro-cyclohexyl]amino}-N-(2-chlorothiophen-3-yl)pyrrolo[1,2-b]pyridazine-7-carboxamide trifluoroacetate]: the pIC50 is 5.72.

Molecule `CC(C)(C)n1cc(NC(=O)c2ccc3ccc(N[C@@H]4CCCC[C@@H]4O)nn23)c(C(F)F)n1` [Example 54, N-[1-tert-butyl-3-(difluoromethyl)-1H-pyrazol-4-yl]-2-{[(1R,2S)-2-hydroxycyclohexyl]amino}pyrrolo[1,2-b]pyridazine-7-carboxamide trifluoroacetate] gave a pIC50 of 6.19.

`N[C@@H]1[C@H](Nc2ccc3ccc(C(=O)Nc4cscc4Br)n3n2)CCCC1(F)F` [Example 88, 2-{[(1R,2R)-2-amino-3,3-difluoro-cyclohexyl]amino}-N-(4-bromothiophen-3-yl)pyrrolo[1,2-b]pyridazine-7-carboxamide trifluoroacetate]: the negative logarithm of the IC50 (pIC50) was 5.21.

In the case of `Cn1cc(NC(=O)c2ccc3ccc(N[C@@H]4CCCC[C@@H]4N)nn23)c(C(F)F)n1` [Example 19, 2-{[(1R,2S)-2-aminocyclo-hexyl]amino}-N-[3-(difluoromethyl)-1-methyl-1H-pyrazol-4-yl]pyrrolo[1,2-b]pyridazine-7-carboxamide trifluoroacetate], the pIC50 was 9.00.

The molecule `N#Cc1cscc1NC(=O)c1ccc2ccc(N[C@@H]3CCCC(F)(F)[C@@H]3N)nn12` [Example 89, 2-{[(1R,2R)-2-amino-3,3-difluoro-cyclohexyl]amino}-N-(4-cyanothiophen-3-yl)pyrrolo[1,2-b]pyridazine-7-carboxamide trifluoroacetate] had a pIC50 of 6.47. Compared with the last molecule, the pIC50 is 2.53 log units lower.

On to `Cn1cc(NC(=O)c2ccc3ccc(N4C[C@H]5CNC[C@@H]4C5)nn23)c(C(F)F)n1` (single isomer, unassigned) [Example 126, 2-[(1S,5R)- or (1R,5S)-3,6-diazabicyclo[3.2.1]oct-6-yl]-N-[3-(difluoromethyl)-1-methyl-1H-pyrazol-4-yl]pyrrolo[1,2-b]pyridazine-7-carboxamide], for which the pIC50 was 7.85. Compared with the last molecule, the pIC50 is 1.38 log units higher.

In turn, `Cn1cc(NC(=O)c2ccc3ccc(N4C[C@H]5CNC[C@@H]4C5)nn23)c(C(F)(F)F)n1` [Example 123, 2-[(1S,5R)-(1R,5S)-3,6-diazabicyclo[3.2.1]oct-6-yl]-N-[1-methyl-3-(trifluoromethyl)-1H-pyrazol-4-yl]pyrrolo[1,2-b]pyridazine-7-carboxamide] had a pIC50 of 6.94.
